Experimental data from the NIST ThermoML archive (doi:10.1016/j.jct.2015.09.018).

Test: molar heat capacity at constant pressure
Conditions: 101.33 kPa, Crystal 3, relaxation calorimetry

[O-2].[O-2].[Ti+4] [titanium(IV) oxide]
Conditions	molar heat capacity at constant pressure [J/K/mol]
0.5 K	0.000432
1 K	0.00103
1.5 K	0.00196
2 K	0.00337
2.01 K	0.00218
2.35 K	0.00327
2.47 K	0.00544
2.5 K	0.00541
2.88 K	0.00862
3 K	0.00821
3.5 K	0.0119
3.72 K	0.01489
4 K	0.0165
4.31 K	0.02048
4.5 K	0.0221
4.54 K	0.02277
4.77 K	0.02538
5 K	0.0288
5.03 K	0.02844
5.32 K	0.03402
5.5 K	0.0365
5.56 K	0.03861
5.85 K	0.04314
6 K	0.0454
6.14 K	0.04818
6.46 K	0.05442
6.5 K	0.0553
6.84 K	0.06161
7 K	0.0662
7.16 K	0.06852
7.5 K	0.0782
7.53 K	0.07958
7.93 K	0.08951
8 K	0.0911
8.34 K	0.1005
8.5 K	0.105
8.78 K	0.1124
9 K	0.12
9.23 K	0.1263
9.5 K	0.135
9.74 K	0.1441
10 K	0.152
10.23 K	0.1603
10.79 K	0.1786
11 K	0.187
11.34 K	0.2003
11.93 K	0.2256
12 K	0.227
12.55 K	0.2505
13 K	0.271
13.2 K	0.2793
13.91 K	0.3136
14 K	0.318
14.6 K	0.3493
15 K	0.37
15.37 K	0.3923
16 K	0.428
16.16 K	0.4371
16.99 K	0.4905
17 K	0.491
17.87 K	0.5493
18 K	0.559
18.78 K	0.6158
19 K	0.634
19.77 K	0.6928
20 K	0.714
20.78 K	0.7811
21.84 K	0.8773
23.01 K	0.9887
24.2 K	1.12
25 K	1.21
25.43 K	1.26
26.78 K	1.42
28.14 K	1.6
29.6 K	1.8
30 K	1.85
31.12 K	2.01
32.74 K	2.25
34.45 K	2.52
35 K	2.62
36.24 K	2.82
38.12 K	3.16
40 K	3.52
40.1 K	3.54
42.19 K	3.95
44.41 K	4.41
45 K	4.54
46.71 K	4.93
49.16 K	5.48
50 K	5.66
51.71 K	6.07
54.41 K	6.71
55 K	6.87
57.24 K	7.42
60 K	8.12
60.22 K	8.18
63.37 K	8.97
65 K	9.38
66.7 K	9.78
70 K	10.75
70.19 K	10.75
73.8 K	11.78
75 K	12.2
77.13 K	12.82
80 K	13.67
81.7 K	13.98
85 K	15.16
85.33 K	15.22
89.74 K	16.6
90 K	16.65
94.38 K	17.97
95 K	18.14
99.29 K	19.28
100 K	19.6
104.43 K	20.84
109.84 K	22.53
110 K	22.48
115.54 K	24.21
120 K	25.26
121.46 K	25.88
128.44 K	27.05
130 K	27.96
134.65 K	29.35
140 K	30.55
141.61 K	31.35
148.86 K	33.43
150 K	33.04
156.57 K	35.12
160 K	35.43
165.09 K	36.06
170 K	37.72
173.67 K	37.71
180 K	39.89
182.65 K	39.71
190 K	41.95
192.19 K	41.35
200 K	43.91
201.69 K	44.69
210 K	45.75
212.16 K	46.49
220 K	47.49
223.15 K	48.5
230 K	49.13
234.7 K	50.34
240 K	50.66
246.88 K	52.02
250 K	52.11
259.67 K	53.63
260 K	53.46
270 K	54.73
273.07 K	55.28
273.15 K	55.11
280 K	55.92
287.77 K	56.22
290 K	57.04
298.15 K	57.89
300 K	58.08
302.73 K	58.1
305 K	58.58
